Results as given in ChEMBL document CHEMBL1255467, “Comparative in vitro antimicrobial activities of torezolid (TR-700), the active moiety of a new oxazolidinone, torezolid phosphate (TR-701), determination of tentative disk diffusion interpretive criteria, and quality control ranges” (2010).

Columns and labels:
Enterococcus faecium [1] = experiment: Antimicrobial activity against vancomycin-susceptible Enterococcus faecium by broth dilution method; format: functional; conditions: Enterococcus faecium
Streptococcus pneumoniae [2] = experiment: Antimicrobial activity against penicillin-intermediate Streptococcus pneumoniae by broth dilution method; format: functional; conditions: Streptococcus pneumoniae
Moraxella catarrhalis = experiment: Antimicrobial activity against Moraxella catarrhalis by broth dilution method; format: functional
Enterococcus faecalis = experiment: Antimicrobial activity against vancomycin-susceptible Enterococcus faecalis by broth dilution method; format: functional; conditions: Enterococcus faecalis
Streptococcus pneumoniae [3] = experiment: Antimicrobial activity against Streptococcus pneumoniae by broth dilution method; format: functional; conditions: Streptococcus pneumoniae
Haemophilus influenzae [4] = experiment: Antimicrobial activity against ampicillin-nonsusceptible beta-lactamase negative Haemophilus influenzae by broth dilution method; format: functional; conditions: Haemophilus influenzae
Streptococcus pneumoniae [5] = experiment: Antimicrobial activity against penicillin-susceptible Streptococcus pneumoniae by broth dilution method; format: functional; conditions: Streptococcus pneumoniae
Corynebacterium jeikeium = experiment: Antimicrobial activity against Corynebacterium jeikeium by broth dilution method; format: functional
Listeria monocytogenes = experiment: Antimicrobial activity against Listeria monocytogenes by broth dilution method; format: functional
Haemophilus influenzae [6] = experiment: Antimicrobial activity against beta-lactamase negative Haemophilus influenzae by broth dilution method; format: functional; conditions: Haemophilus influenzae
Staphylococcus sp. [7] = experiment: Antimicrobial activity against methicillin-susceptible coagulase-negative Staphylococcus by broth dilution method; format: functional; conditions: Staphylococcus sp.
Staphylococcus aureus [8] = experiment: Antimicrobial activity against vancomycin-nonsusceptible Staphylococcus aureus by broth dilution method; format: functional; conditions: Staphylococcus aureus
Streptococcus sp = experiment: Antimicrobial activity against streptococcal sp. by broth dilution method; conditions: Streptococcus sp.
Staphylococcus aureus [9] = experiment: Antimicrobial activity against Staphylococcus aureus by broth dilution method; format: functional; conditions: Staphylococcus aureus
Staphylococcus sp. [10] = experiment: Antimicrobial activity against Staphylococcus sp. by broth dilution method; format: functional; conditions: Staphylococcus sp.
Haemophilus influenzae [11] = experiment: Antimicrobial activity against beta-lactamase positive Haemophilus influenzae by broth dilution method; format: functional; conditions: Haemophilus influenzae
Haemophilus influenzae [12] = experiment: Antimicrobial activity against Haemophilus influenzae by broth dilution method; format: functional; conditions: Haemophilus influenzae
Enterococcus faecium [13] = experiment: Antimicrobial activity against vancomycin-resistant Enterococcus faecium by broth dilution method; format: functional
Staphylococcus sp. [14] = experiment: Antimicrobial activity against methicillin-resistant coagulase-negative Staphylococcus by broth dilution method; format: functional
Staphylococcus aureus [15] = experiment: Antimicrobial activity against methicillin-susceptible Staphylococcus aureus by broth dilution method; format: functional; conditions: Staphylococcus aureus
Streptococcus pneumoniae [16] = experiment: Antimicrobial activity against penicillin-resistant Streptococcus pneumoniae by broth dilution method; format: functional
Streptococcus viridans = experiment: Antimicrobial activity against Streptococcus viridans by broth dilution method; format: functional
Staphylococcus aureus [17] = experiment: Antimicrobial activity against methicillin-resistant Staphylococcus aureus by broth dilution method; format: functional; conditions: Staphylococcus aureus
Enterococcus sp. = experiment: Antimicrobial activity against Enterococcus by broth dilution method; format: functional; conditions: Enterococcus sp.

CO/N=C(\C(=O)N[C@@H]1C(=O)N2C(C(=O)O)=C(COC(C)=O)CS[C@H]12)c1csc(N)n1 [CEFOTAXIME]
8 ng/mL: MIC (Haemophilus influenzae [6]) | MIC50 (Haemophilus influenzae [6])
4 µg/mL: MIC50 (Staphylococcus sp. [10])
> 64 µg/mL: MIC50 (Enterococcus faecium [1]) | MIC90 (Enterococcus faecium [1]) | MIC50 (Enterococcus faecalis) | MIC90 (Enterococcus faecalis) | MIC50 (Staphylococcus aureus [8]) | MIC90 (Staphylococcus aureus [8]) | MIC90 (Staphylococcus aureus [9]) | MIC90 (Staphylococcus sp. [10]) | MIC (Enterococcus faecium [13]) | MIC50 (Enterococcus sp.) | MIC90 (Enterococcus sp.)
0.12 µg/mL: MIC50 (Streptococcus pneumoniae [2]) | MIC50 (Streptococcus pneumoniae [3]) | MIC50 (Streptococcus viridans)
1 µg/mL: MIC90 (Moraxella catarrhalis) | MIC90 (Streptococcus sp) | MIC50 (Streptococcus pneumoniae [16])
32 µg/mL: MIC50 (Corynebacterium jeikeium) | MIC90 (Corynebacterium jeikeium) | MIC50 (Listeria monocytogenes) | MIC90 (Listeria monocytogenes)
8 µg/mL: MIC50 (Staphylococcus sp. [14]) | MIC90 (Streptococcus pneumoniae [16])
16 µg/mL: MIC50 (Staphylococcus aureus [17])
0.25 µg/mL: MIC50 (Moraxella catarrhalis)
0.5 µg/mL: MIC90 (Streptococcus pneumoniae [2]) | MIC50 (Haemophilus influenzae [4]) | MIC90 (Haemophilus influenzae [4]) | MIC50 (Staphylococcus sp. [7]) | MIC90 (Haemophilus influenzae [12]) | MIC90 (Streptococcus viridans)
0.015 µg/mL: MIC (Streptococcus pneumoniae [5]) | MIC50 (Streptococcus pneumoniae [5]) | MIC90 (Haemophilus influenzae [6]) | MIC50 (Haemophilus influenzae [11]) | MIC90 (Haemophilus influenzae [11]; read-out: MIC90) | MIC50 (Haemophilus influenzae [12])
> 8 µg/mL: MIC50 (Staphylococcus aureus [9])
0.03 µg/mL: MIC90 (Streptococcus pneumoniae [5]) | MIC50 (Streptococcus sp)
2 µg/mL: MIC90 (Streptococcus pneumoniae [3]) | MIC90 (Staphylococcus sp. [7]) | MIC50 (Staphylococcus aureus [15]) | MIC90 (Staphylococcus aureus [15])
